Key:
Assay type in all cases: cell-based
[1] = system: outer membrane permeability; test: Outer membrane permeabilization assay (β-lactamase activity in whole cells or released into suspension)
Experimental: The β-lactamase activity was determined by a spectrophotometric method using nitrocefin as a substrate. After the β-lactamase was extracted from the cells, the β-lactamase activity was monitored by absorbance changes in wavelength at 486 nm with a molar extinction coefficient of 20500. The extent of hydrolysis was a reflection of the amount of enzyme remaining uninhibited.
An outer membrane permeabilization assay was performed by examining the release of the chromosomally encoded β-lactamase. Briefly, stationary phase cells were diluted 1:59 into 20 mL pre-warmed MMP broth and cultured in an incubator at 350 rpm and at 37 C for 5 hours. After carbenicillin (200 μg/mL) was added to induce β-lactamase activity, the culture was incubated for additional 5 hours. The cells were harvested by centrifugation at 5,000×g for 10 minutes and washed once with 0.05M sodium phosphate buffer at pH 7.2. The cell pellet was resuspended in 5 mL of the same buffer and divided into 1 mL aliquots. […] […] The reaction mixtures were incubated at room temperature for 5 minutes and immediately centrifuged at full speed (15000×g) for 20 minutes and the supernatant was used for β-lactamase sources. β-lactamase activity was determined as described above using 300 μL of the supernatant.

P. aeruginosa PAO1 = test: MIC of antibiotics against P. aeruginosa PAO1 with or without polyamines
Experimental: Various strains of bacteria, including P. aeruginosa and e. coli were grown on Luria-Bertani (LB) agar/broth or Mueller-Hinton (MH) agar/broth. […] The antibiotics, chemicals, and/or polyamines were dissolved in double distilled water or solvent and thereafter filtered through a 0.4 μm disposable membranes.
The MIC values of the strains associated with various combinations of polyamines and antibiotics were determined using standard two-fold agar dilutions techniques and broth dilutions techniques in Mueller-Hinton broth. The lowest concentration of drug with no visible turbidity was deemed the MIC.

[2] = system: methicillin resistant Staphylococcus aureus (MRSA) Mu50; test: MIC of antibiotics against MRSA Mu50 with or without spermine; details: with 1 mM spermine

## O=C(O)CN(CCN(CC(=O)O)CC(=O)O)CC(=O)O [EDTA]
[1]; 0.5 mM (FIG. 6)
  release of periplasmic β-lactamase into the suspension solution: can be detected
[1]; 1 mM (FIG. 6)
  release of periplasmic β-lactamase into the suspension solution: increased

## NCCCCNCCCN [Spermidine]
P. aeruginosa PAO1; 0 mM polyamine
  MICs to carbenicillin in the indicated concentration of polyamines: 64 µg/mL
P. aeruginosa PAO1; 0.5 mM polyamine
  MICs to carbenicillin in the indicated concentration of polyamines: 32 µg/mL
P. aeruginosa PAO1; 1 mM polyamine
  MICs to carbenicillin in the indicated concentration of polyamines: 16 µg/mL
P. aeruginosa PAO1; 5 mM polyamine
  MICs to carbenicillin in the indicated concentration of polyamines: 16 µg/mL
P. aeruginosa PAO1; 10 mM polyamine
  MICs to carbenicillin in the indicated concentration of polyamines: 8 µg/mL
P. aeruginosa PAO1; 20 mM polyamine
  MICs to carbenicillin in the indicated concentration of polyamines: 4 µg/mL
[1]; 20 mM (FIG. 7)
  β-lactamase activity detected: only a very low level

## Polymyxin B
[2]
  MICs in the presence or absence of spermine (1 mM): Spermine: 64 µg/mL
[1]; 100 μg/mL applied to the cell suspension (FIG. 5)
  β-lactamase activities detected in the whole cells: significant activities

Reference: patent US20060270648A1, “USE OF POLYAMINES WITH ANTIBIOTICS” (priority 2005, published 2006)
